Measured values published in ChEMBL document CHEMBL1155358, “Unsaturated genistein disaccharide glycoside as a novel agent affecting microtubules” (2009).
Active and inactive are the calls of the source. No cut-off for these calls is given here.

Tests used:
DU-145 [1] = test: Cell cycle arrest in human DU145 cells assessed as accumulation between G1 phase and G2M phase at 50 uM after 24 hrs by flow cytometry using propidium iodide staining; format: functional
DU-145 [2] = test: Cell cycle arrest in human DU145 cells assessed as accumulation at G2M phase at 100 uM after 24 hrs by flow cytometry using propidium iodide staining; format: functional
DU-145 [3] = test: Cell cycle arrest in human DU145 cells assessed as accumulation at G1 phase at 100 uM after 24 hrs by flow cytometry using propidium iodide staining; format: functional
DU-145 [4] = test: Cell cycle arrest in human DU145 cells assessed as accumulation between G1 phase and G2M phase at 100 uM after 24 hrs by flow cytometry using propidium iodide staining; format: functional
DU-145 [5] = test: Cell cycle arrest in human DU145 cells assessed as accumulation at < G2M phase at 50 uM after 24 hrs by flow cytometry using propidium iodide staining; format: functional
DU-145 [6] = test: Cell cycle arrest in human DU145 cells assessed as accumulation at >G1 phase at 50 uM after 24 hrs by flow cytometry using propidium iodide staining; format: functional
DU-145 [7] = test: Cell cycle arrest in human DU145 cells assessed as accumulation at < G2M phase at 100 uM after 24 hrs by flow cytometry using propidium iodide staining; format: functional
DU-145 [8] = test: Cell cycle arrest in human DU145 cells assessed as accumulation at >G1 phase at 100 uM after 24 hrs by flow cytometry using propidium iodide staining; format: functional
DU-145 [9] = test: Induction of apoptosis in human DU145 cells at interphase assessed as alteration in microtubule array at 100 uM after 24 hrs by beta tubulin immunofluorescent staining; format: functional, cell-based
DU-145 [10] = test: Cell cycle arrest in human DU145 cells assessed as accumulation at G2M phase at 50 uM after 24 hrs by flow cytometry using propidium iodide staining; format: functional
DU-145 [11] = test: Cell cycle arrest in human DU145 cells assessed as accumulation at G1 phase at 50 uM after 24 hrs by flow cytometry using propidium iodide staining; format: functional
DU-145 [12] = test: Induction of apoptosis in human DU145 cells at interphase assessed as dencer microtubue network at 2 nM after 24 hrs by beta tubulin immunofluorescent staining; format: functional, cell-based
DU-145 [13] = test: Cell cycle arrest in human DU145 cells assessed as accumulation at < G2M phase at 5 uM after 24 hrs by flow cytometry using propidium iodide staining; format: functional
DU-145 [14] = test: Cell cycle arrest in human DU145 cells assessed as accumulation at >G1 phase at 10 uM after 24 hrs by flow cytometry using propidium iodide staining; format: functional
DU-145 [15] = test: Cell cycle arrest in human DU145 cells assessed as accumulation at < G2M phase at 10 uM after 24 hrs by flow cytometry using propidium iodide staining; format: functional
DU-145 [16] = test: Cell cycle arrest in human DU145 cells assessed as accumulation at >G1 phase at 5 uM after 24 hrs by flow cytometry using propidium iodide staining; format: functional
DU-145 [17] = test: Cell cycle arrest in human DU145 cells assessed as accumulation at G2M phase relative to control; format: functional
DU-145 [18] = test: Induction of apoptosis in human DU145 cells at interphase assessed as loosened of microtubule network at 5 uM after 24 hrs by beta tubulin immunofluorescent staining; format: functional, cell-based
DU-145 [19] = test: Induction of apoptosis in human DU145 cells at interphase assessed as complete disappearance of microtubules at 25 uM after 24 hrs by beta tubulin immunofluorescent staining; format: functional, cell-based
DU-145 [20] = test: Cell cycle arrest in human DU145 cells assessed as accumulation at G2M phase at 5 uM after 24 hrs by flow cytometry using propidium iodide staining; format: functional
DU-145 [21] = test: Cell cycle arrest in human DU145 cells assessed as accumulation at G1 phase at 5 uM after 24 hrs by flow cytometry using propidium iodide staining; format: functional
DU-145 [22] = test: Cell cycle arrest in human DU145 cells assessed as accumulation between G1 phase and G2M phase at 5 uM after 24 hrs by flow cytometry using propidium iodide staining; format: functional
DU-145 [23] = test: Cell cycle arrest in human DU145 cells assessed as accumulation at G2M phase at 10 uM after 24 hrs by flow cytometry using propidium iodide staining; format: functional
DU-145 [24] = test: Cell cycle arrest in human DU145 cells assessed as accumulation at G1 phase at 10 uM after 24 hrs by flow cytometry using propidium iodide staining; format: functional
DU-145 [25] = test: Cell cycle arrest in human DU145 cells assessed as accumulation between G1 phase and G2M phase at 10 uM after 24 hrs by flow cytometry using propidium iodide staining; format: functional
DU-145 [26] = test: Induction of apoptosis in human DU145 cells at interphase assessed as curly appearance of microtubules at 1 nM after 24 hrs by beta tubulin immunofluorescent staining; format: functional, cell-based

SMILES: O=c1c(-c2ccc(O)cc2)coc2cc(O)cc(O)c12 [GENISTEIN]
- Activity (DU-145 [1]): 19.2%
- Activity (DU-145 [2]): 27.2%
- Activity (DU-145 [3]): 44.3%
- Activity (DU-145 [4]): 20.8%
- Activity (DU-145 [5]): 2.8%
- Activity (DU-145 [6]): 5.1%
- Activity (DU-145 [7]): 1.6%
- Activity (DU-145 [8]): 6.1%
- Activity (DU-145 [9]): inactive
- Activity (DU-145 [10]): 17.1%
- Activity (DU-145 [11]): 55.9%

SMILES: CC(=O)O[C@H]1C(=O)[C@@]2(C)[C@H]([C@H](OC(=O)c3ccccc3)[C@]3(O)C[C@H](OC(=O)[C@H](O)[C@@H](NC(=O)c4ccccc4)c4ccccc4)C(C)=C1C3(C)C)[C@]1(OC(C)=O)CO[C@@H]1C[C@@H]2O
- Activity (DU-145 [12]): Active

SMILES: CC(=O)OC[C@H]1O[C@@H](O[C@H]2C=C[C@@H](Oc3cc(O)c4c(=O)c(-c5ccc(O)cc5)coc4c3)O[C@@H]2COC(C)=O)[C@H](OC(C)=O)[C@@H](OC(C)=O)[C@H]1OC(C)=O
- Activity (DU-145 [13]): 1.4%
- Activity (DU-145 [14]): 5.7%
- Activity (DU-145 [15]): 1.7%
- Activity (DU-145 [16]): 7.5%
- Activity (DU-145 [17]): 30%
- Activity (DU-145 [18]): Active
- Activity (DU-145 [19]): Active
- Activity (DU-145 [20]): 54.5%
- Activity (DU-145 [21]): 26.5%
- Activity (DU-145 [22]): 10.1%
- Activity (DU-145 [23]): 57.8%
- Activity (DU-145 [24]): 23.4%
- Activity (DU-145 [25]): 11.4%

SMILES: CC[C@]1(O)C[C@@H]2CN(CCc3c([nH]c4ccccc34)[C@@](C(=O)OC)(c3cc4c(cc3OC)N(C)[C@H]3[C@@](O)(C(=O)OC)[C@H](OC(C)=O)[C@]5(CC)C=CCN6CC[C@]43[C@@H]65)C2)C1
- Activity (DU-145 [26]): Active
